Data set [1] concerns Human immunodeficiency virus 1. The data set is described as follows: Antiviral activity against HIV1 in CEM cells. It counts as functional, organism-based. Conditions: Human immunodeficiency virus 1, CCRF-CEM.
Data set [2] is described as follows: Therapeutic index, ratio of IC50 for CEM cells to EC50 for HIV1. The class given is cell-based, CCRF-CEM. Conditions: human, read-out: Ratio IC50/EC50.
The test system of a further data set is CCRF-CEM. The data set is described as follows: Cytotoxicity against CEM cells. It counts as cell-based. Conditions: Homo sapiens.

Drawing on ChEMBL document CHEMBL1137245, “Synthesis and anti-HIV-1 activity of a novel series of 1,4,2-benzodithiazine-dioxides” (Bioorg Med Chem Lett, 2006), this text covers EC50, selectivity ratio and IC50 for 8 compounds.

Broadly, the EC50 is the concentration giving half of the maximal effect. Lower therefore signals greater potency. For orientation: IC50 means the midpoint of a concentration-inhibition curve. A higher IC50 goes with weaker potency in that assay. Compound `O=S1(=O)c2ccc(Cl)cc2SC2=NCCCN21` came in with a concentration giving a half-maximal response (EC50) in data set [1] of 4.75 µM. In addition, the selectivity ratio in data set [2] was over 42.1. This compound also had a 50% inhibitory concentration (IC50) in the data set on CCRF-CEM of over 200 µM.

As to `Cc1cc2c(cc1Cl)SC1=NCC(C)N1S2(=O)=O` (stereo not drawn), a half-maximal response in data set [1] (EC50) required 8.52 µM. Further, the selectivity ratio in data set [2] is 12.6. Also, 107 µM corresponded to half-maximal inhibition with CCRF-CEM (IC50).

In the case of `Cc1cc2c(cc1Cl)SC1=NC(CCl)CN1S2(=O)=O` (stereo not drawn), the concentration for a half-maximal effect (EC50) in data set [1] is 4.04 µM. Further, the selectivity ratio in data set [2] came to 6.4. The IC50 in the data set with CCRF-CEM turned out to be 28 µM.

Consider `Cc1cc2c(cc1Cl)SC1=NC(CSCc3ccccc3)CN1S2(=O)=O` (stereo not drawn), for which the concentration giving a half-maximal response (EC50) in data set [1] was over 200 µM. The IC50 in the data set on CCRF-CEM was 135 µM.

Turning to `Cc1cc2c(cc1Cl)SC1=NCCN1S2(=O)=O`, the response in data set [1] was half-maximal at 16.5 µM (EC50). Moreover, the selectivity ratio in data set [2] is 8.2. In the data set on CCRF-CEM, inhibition was half-maximal at 135 µM (IC50).

In data set [1], `Cc1cc2c(cc1Cl)SC1=NCCCN1S2(=O)=O` gave an EC50 of 0.98 µM. Besides, the selectivity ratio in data set [2] is over 204. In the data set with CCRF-CEM, this compound yielded an IC50 of over 200 µM.

`Cc1cc2c(cc1Cl)SC1=NCC(C)CN1S2(=O)=O` (stereo not drawn) registered an EC50 in data set [1] of 162 µM. The selectivity ratio in data set [2] is over 1.23. Further, the half-inhibitory concentration (IC50) with CCRF-CEM was over 200 µM.

In data set [1], `Cc1cc(Cl)cc2c1S(=O)(=O)N1CCCN=C1S2` gave an EC50 of 0.09 µM. Also, the selectivity ratio in data set [2] stood at 1180. For the same compound, inhibition with CCRF-CEM was half-maximal at 106 µM (IC50).
